Tested on: Tetranor-PGDM EIA Antiserum
Experiment: Cross-reactivity testing of the antibody in competitive tetranor-PGDM EIA
Conditions: Specificity of the Tetranor-PGDM EIA Antiserum; Example 3 Step D2c
Procedure: To determine cross-reactivity of an antibody, the standard curve using optimal tracer and Ab dilutions according the kit instructions was set up. Tetranor PGDM was diluted to 10 ng/mL for the first point in the standard curve and diluted 2.5-fold serially 7 times. First standard dilutions (10 μg/mL) of tetranor-PGJM, tetranor-PGEM, tetranor-PGFM, PGA2, PGD2, PGE2, PGF2α, PGJ2, 13,14-dihydro-15-keto PGD2, 13,14-dihydro-15-keto-PGE2, 13,14-dihydro-15-keto-PGF2, were prepared and 7 additional 6-fold serial dilutions were performed. IC50s of all compounds were determined and each percent cross-reactivity (% XR) values of the potentially cross-reactive compounds was determined by dividing the IC50 of tetranor-PGDM by the IC50 of the test compound and multiplying by 100.

Which “Cross-reactivity (% XR)” value does the source give for `CCCCCC(=O)CC[C@H]1C(=O)C[C@H](O)[C@@H]1C/C=C\CCCC(=O)O` [13,14-dihydro-15-keto Prostaglandin D2] here?
The value was <0.01%.

`O=C(O)CCCCC(=O)CC[C@@H]1[C@@H](CCC(=O)O)[C@@H](O)C[C@H]1O` [tetranor-PGFM] was tested. Which “Cross-reactivity (% XR)” value did it give?
The value was <0.01%.

Which “Cross-reactivity (% XR)” value does the source give for Prostaglandin F2α here?
Its value is <0.01%.

How did the “Cross-reactivity (% XR)” value turn out when `CCCCC[C@H](O)/C=C/[C@H]1C(=O)C[C@H](O)[C@@H]1C/C=C\CCCC(=O)O` [Prostaglandin D2] was run?
The value was <0.01%.

For `CCCCCC(=O)CC[C@H]1[C@H](O)CC(=O)[C@@H]1C/C=C\CCCC(=O)O` [13,14-dihydro-15-keto Prostaglandin E2], which “Cross-reactivity (% XR)” value is on record?
The value was <0.01%.

How did the “Cross-reactivity (% XR)” value turn out when `O=C(O)CCCCC(=O)CC[C@H]1C(=O)C[C@H](O)[C@@H]1CCC(=O)O` [tetranor-PGDM, 9α-hydroxy-11,15-dioxo-13,14-dihydro-2,3,4,5-tetranor-prostan-1,20-dioic acid] was run?
The value was 100%.

`CCCCC[C@H](O)/C=C/[C@H]1C=CC(=O)[C@@H]1C/C=C\CCCC(=O)O` [Prostaglandin A2] was tested. Which “Cross-reactivity (% XR)” value did it give?
Its value is <0.01%.

With `CCCCC[C@H](O)/C=C/[C@H]1[C@H](O)CC(=O)[C@@H]1C/C=C\CCCC(=O)O` [Prostaglandin E2] as the molecule, how does the “Cross-reactivity (% XR)” value read?
The value was <0.01%.

How did the “Cross-reactivity (% XR)” value turn out when `CCCCC[C@H](O)/C=C/[C@H]1C(=O)C=C[C@@H]1C/C=C\CCCC(=O)O` [Prostaglandin J2] was run?
The value was <0.01%.

With `O=C(O)CCCCC(=O)CC[C@H]1C(=O)C=C[C@@H]1CCC(=O)O` [tetranor-PGJM] as the molecule, how does the “Cross-reactivity (% XR)” value read?
The value was 376%.

For `O=C(O)CCCCC(=O)CC[C@H]1[C@H](O)CC(=O)[C@@H]1CCC(=O)O` [tetranor-PGEM], which “Cross-reactivity (% XR)” value is on record?
Its value is 0.3%.

`CCCCCC(=O)CC[C@@H]1[C@@H](C/C=C\CCCC(=O)O)[C@@H](O)C[C@H]1O` [13,14-dihydro-15-keto Prostaglandin F2α] was tested. Which “Cross-reactivity (% XR)” value did it give?
The value was <0.01%.

Reference: patent publication US20120021437A1, “TETRANOR-PGDM/PGJM SPECIFIC IMMUNOGENS, ANTIBODIES, TRACERS, ASSAY KITS AND METHODS FOR MAKING SAME” (Cayman Chemical Company, Incorporated, priority 2010, published 2012)
